# Values joined by “and” are separate entries in the source; they are usually repeats but may differ in a detail not shown here. Identical values can stand only once. Records with an inconclusive call do not appear.
# Tested on: MX-1 breast xenograft, intrarenal, nude mice, tumor weight
# Test: NCI In Vivo Anticancer Drug Screen. Data for tumor model Human Mammary Carcinoma MX-1 Xenograft (intrarenal inoculation) in NU/NU BALB/C (nude) mice
# Details: endpoint: mean tumor weight change, higher = larger tumour
# Summary of the method: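 Transplantable tumors established in mice; animals dosed with compound or vehicle; survival or tumor size then recorded. Result reported as treated (T) divided by vehicle control (C).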
# [1] = dose: 150.0 mg/kg/injection, schedule: Q04DX003 (ip), vehicle: Klucel (hydroxypropylcellulose) (HPC)
# [2] = dose: 0.63 mg/kg/injection, schedule: Q04DX003 (sc), vehicle: saline
# [3] = dose: 1.25 mg/kg/injection, schedule: Q04DX003 (sc), vehicle: saline
# [4] = dose: 2.5 mg/kg/injection, schedule: Q04DX003 (sc), vehicle: saline
# [5] = dose: 150.0 mg/kg/injection, schedule: Q04DX003 (ip), vehicle: saline
# [6] = dose: 300.0 mg/kg/injection, schedule: Q04DX003 (ip), vehicle: saline
# [7] = dose: 150.0 mg/kg/injection, schedule: Q04DX003 (sc), vehicle: saline
# [8] = dose: 300.0 mg/kg/injection, schedule: Q04DX003 (sc), vehicle: saline
# [9] = dose: 600.0 mg/kg/injection, schedule: Q04DX003 (sc), vehicle: saline
# [10] = dose: 1200.0 mg/kg/injection, schedule: Q04DX003 (sc), vehicle: saline
# [11] = dose: 100.0 mg/kg/injection, schedule: Q04DX003 (sc), vehicle: saline
compound,measurement,setting,value
Cc1cc2cc3cc(C)c(N)cc3nc2cc1N,T/C,"dose: 200.0 mg/kg/injection, schedule: Q04DX003 (sc), vehicle: saline with Tween-80",161 % of control
same,T/C,"dose: 400.0 mg/kg/injection, schedule: Q04DX003 (sc), vehicle: saline with Tween-80",106 % of control
same,T/C,"dose: 800.0 mg/kg/injection, schedule: Q04DX003 (sc), vehicle: saline with Tween-80",107 % of control
same,T/C,"dose: 1600.0 mg/kg/injection, schedule: Q04DX003 (sc), vehicle: saline with Tween-80",107 % of control
CC[C@@]1(O)C(=O)OCc2c1cc1n(c2=O)Cc2cc3ccccc3nc2-1,T/C,"dose: 10.0 mg/kg/injection, schedule: Q04DX003 (sc), vehicle: saline with Tween-80",-84 % of control and -100 % of control
same,T/C,"dose: 20.0 mg/kg/injection, schedule: Q04DX003 (sc), vehicle: saline with Tween-80",-100 % of control and -95 % of control
same,T/C,"dose: 40.0 mg/kg/injection, schedule: Q04DX003 (sc), vehicle: saline with Tween-80",-100 % of control
S=c1sc2ccccc2n1CN1CCOCC1,T/C,"dose: 75.0 mg/kg/injection, schedule: Q04DX003 (ip), vehicle: saline with Tween-80",77 % of control and 84 % of control
same,T/C,"dose: 150.0 mg/kg/injection, schedule: Q04DX003 (ip), vehicle: saline with Tween-80",110 % of control and 115 % of control
same,T/C,"dose: 300.0 mg/kg/injection, schedule: Q04DX003 (ip), vehicle: saline with Tween-80",79 % of control and 90 % of control
same,T/C,"dose: 600.0 mg/kg/injection, schedule: Q04DX003 (ip), vehicle: saline with Tween-80",67 % of control and 82 % of control
COC(=O)NC1C(C)OC(OC2C/C=C(/C)C3C=CC4C(OC5CC(OC6CC(O)C(OC7CC(O)C(OC)C(C)O7)C(C)O6)C(O)C(C)O5)C(C)CC(C)C4C3(C)/C(O)=C3\C(=O)OC4(CC(C)C(CO)=CC4/C=C\2C)C3=O)CC1(C)[N+](=O)[O-] (stereo not drawn),T/C,"dose: 75.0 mg/kg/injection, schedule: Q04DX003 (ip), vehicle: Klucel (hydroxypropylcellulose) (HPC)",110 % of control
same,T/C,[1],108 % of control
CNC(=O)O/N=C(\CN=[N+]=[N-])C(C)(C)C,T/C,[2],116 % of control
same,T/C,[3],71 % of control
same,T/C,[4],84 % of control
CC(=O)NCCSSCCCCS(=O)O,T/C,[5],110 % of control
same,T/C,[6],112 % of control
CC(=O)C[n+]1ccc(C)cc1Sc1ccccc1C,T/C,"dose: 15.0 mg/kg/injection, schedule: Q04DX003 (ip), vehicle: suspension in saline",111 % of control
same,T/C,"dose: 30.0 mg/kg/injection, schedule: Q04DX003 (ip), vehicle: suspension in saline",97 % of control
same,T/C,"dose: 60.0 mg/kg/injection, schedule: Q04DX003 (ip), vehicle: suspension in saline",80 % of control
same,T/C,"dose: 120.0 mg/kg/injection, schedule: Q04DX003 (ip), vehicle: suspension in saline",102 % of control
Cc1c(N)nc(C(CC(N)=O)NCC(N)C(N)=O)nc1C(=O)NC(C(=O)NC(C)C(O)C(C)C(=O)NC(C(=O)NCCc1nc(-c2nc(C(=O)NCCCNC(C)c3ccccc3)cs2)cs1)C(C)O)C(OC1OC(CO)C(O)C(O)C1OC1OC(CO)C(O)C(OC(N)=O)C1O)c1cnc[nH]1 (stereo not drawn),T/C,"dose: 8.0 mg/kg/injection, schedule: Q01DX010 (sc), vehicle: saline",69 % of control
same,T/C,"dose: 16.0 mg/kg/injection, schedule: Q01DX010 (sc), vehicle: saline",55 % of control
same,T/C,"dose: 32.0 mg/kg/injection, schedule: Q01DX010 (sc), vehicle: saline",43 % of control
Cn1nnc2c(C(N)=O)ncn2c1=O,T/C,"dose: 75.0 mg/kg/injection, schedule: Q04DX003 (ip), vehicle: suspension in saline",68 % of control
same,T/C,[5],24 % of control
same,T/C,"dose: 150.0 mg/kg/injection, schedule: Q04DX003 (ip), vehicle: suspension in saline",15 % of control
same,T/C,[6],-68 % of control
same,T/C,"dose: 300.0 mg/kg/injection, schedule: Q04DX003 (ip), vehicle: suspension in saline",-100 % of control
COc1cc2c(ccc3c4cc(OC)c(OC)cc4c[n+](C)c23)cc1O,T/C,[7],83 % of control
same,T/C,[8],74 % of control
same,T/C,[9],79 % of control
same,T/C,[10],68 % of control
C=C1COC(O)(C2OCOC(C3CC(=O)NC(=O)C3)C2O)C1C (stereo not drawn),T/C,"dose: 37.5 micrograms/kg/injection, schedule: Q04DX003 (ip), vehicle: water",117 % of control
[Cl][Pt+2][Cl].[NH-]C1CCC1.[NH2-],T/C,"dose: 6.25 mg/kg/injection, schedule: Q04DX003 (sc), vehicle: saline",-94 % of control
same,T/C,"dose: 12.5 mg/kg/injection, schedule: Q04DX003 (sc), vehicle: saline",-97 % of control
CCCC1(c2ccccc2)C(=O)NCNC1=O,T/C,[1],92 % of control
same,T/C,"dose: 300.0 mg/kg/injection, schedule: Q04DX003 (ip), vehicle: Klucel (hydroxypropylcellulose) (HPC)",95 % of control
same,T/C,"dose: 600.0 mg/kg/injection, schedule: Q04DX003 (ip), vehicle: Klucel (hydroxypropylcellulose) (HPC)",88 % of control
same,T/C,"dose: 1200.0 mg/kg/injection, schedule: Q04DX003 (ip), vehicle: Klucel (hydroxypropylcellulose) (HPC)",55 % of control
Nc1ncn(C2OC(CO)C(O)C2O)c(=O)n1 (stereo not drawn),T/C,"dose: 0.19 mg/kg/injection, schedule: Q01DX010 (ip), vehicle: saline",307 % of control
same,T/C,"dose: 0.19 mg/kg/injection, schedule: Q01DX010 (sc), vehicle: saline",83 % of control
same,T/C,"dose: 0.38 mg/kg/injection, schedule: Q01DX010 (ip), vehicle: saline",261 % of control
same,T/C,"dose: 0.63 mg/kg/injection, schedule: Q04DX003 (ip), vehicle: saline",73 % of control
same,T/C,[2],22 % of control
same,T/C,"dose: 0.75 mg/kg/injection, schedule: Q01DX010 (ip), vehicle: saline",86 % of control
same,T/C,"dose: 0.75 mg/kg/injection, schedule: Q01DX010 (sc), vehicle: saline",69 % of control
same,T/C,"dose: 1.25 mg/kg/injection, schedule: Q04DX003 (ip), vehicle: saline",91 % of control
same,T/C,[3],40 % of control
same,T/C,"dose: 1.5 mg/kg/injection, schedule: Q01DX010 (ip), vehicle: saline",249 % of control
same,T/C,"dose: 2.5 mg/kg/injection, schedule: Q04DX003 (ip), vehicle: saline",94 % of control
same,T/C,[4],36 % of control
same,T/C,"dose: 5.0 mg/kg/injection, schedule: Q04DX003 (ip), vehicle: saline",31 % of control
same,T/C,"dose: 10.0 mg/kg/injection, schedule: Q04DX003 (sc), vehicle: saline",23 % of control
same,T/C,[11],15 % of control
same,T/C,[7],21 % of control
same,T/C,"dose: 200.0 mg/kg/injection, schedule: Q04DX003 (sc), vehicle: saline",15 % of control
same,T/C,[8],8 % of control
same,T/C,"dose: 400.0 mg/kg/injection, schedule: Q04DX003 (sc), vehicle: saline",4 % of control
same,T/C,[9],-45 % of control
same,T/C,"dose: 800.0 mg/kg/injection, schedule: Q04DX003 (sc), vehicle: saline",-50 % of control
same,T/C,[10],-43 % of control
CCN(CC)Cc1cc2[nH]c3c4ccc(Cl)cc4ncc3c2cc1OC,T/C,"dose: 75.0 mg/kg/injection, schedule: Q04DX003 (sc), vehicle: saline with Tween-80",92 % of control
same,T/C,"dose: 300.0 mg/kg/injection, schedule: Q04DX003 (sc), vehicle: saline with Tween-80",73 % of control
O=P1(N(CCCl)CCCl)NCCCO1 (stereo not drawn),T/C,"dose: 25.0 mg/kg/injection, schedule: Q01DX010 (sc), vehicle: saline",3 % of control
same,T/C,"dose: 25.0 mg/kg/injection, schedule: Q04DX003 (ip), vehicle: saline",1 % of control and -23 % of control
same,T/C,"dose: 50.0 mg/kg/injection, schedule: Q01DX010 (sc), vehicle: saline",-11 % of control
same,T/C,"dose: 50.0 mg/kg/injection, schedule: Q04DX003 (ip), vehicle: saline",-88 % of control and -100 % of control
same,T/C,[11],-95 % of control
same,T/C,"dose: 200.0 mg/kg/injection, schedule: Q04DX003 (ip), vehicle: saline",-73 % of control
C[C@H]1C[C@@H]2[C@H]([C@@H](O)C[C@@]3(C)[C@H]2CC[C@]3(O)C(=O)CO)[C@@]2(C)C=CC(=O)C=C12,T/C,"dose: 200.0 mg/kg/injection, schedule: Q04DX003 (sc), vehicle: Klucel (hydroxypropylcellulose) (HPC)",37 % of control
same,T/C,"dose: 400.0 mg/kg/injection, schedule: Q04DX003 (sc), vehicle: Klucel (hydroxypropylcellulose) (HPC)",47 % of control
same,T/C,"dose: 800.0 mg/kg/injection, schedule: Q04DX003 (sc), vehicle: Klucel (hydroxypropylcellulose) (HPC)",37 % of control
same,T/C,"dose: 1600.0 mg/kg/injection, schedule: Q04DX003 (sc), vehicle: Klucel (hydroxypropylcellulose) (HPC)",19 % of control
Nc1ccc(S(=O)(=O)Nc2cnc3c(Cl)cccc3n2)cc1,T/C,"dose: 150.0 mg/kg/injection, schedule: Q04DX003 (ip), vehicle: DMSO",103 % of control
same,T/C,"dose: 300.0 mg/kg/injection, schedule: Q04DX003 (ip), vehicle: DMSO",49 % of control
same,T/C,"dose: 600.0 mg/kg/injection, schedule: Q04DX003 (ip), vehicle: DMSO",75 % of control

# — PubChem BioAssay AID298 (DTP/NCI, 2004)
